Source: patent WO2007026771A1, “点滴用注射剤” (Ono Pharmaceutical Co Ltd, priority 2005, dated 2007)
Entries after “also recorded” stand apart in the source; their conditions may differ.

Assays:
[1] = target: poly(ADP-ribose) polymerase (PARP) [ポリ(ADP−リボース)ポリメラーゼ] (Homo sapiens, UniProt P09874); settings: cited from earlier work
[2] = Toxicity of compound A
[3] = pH of supernatant of aqueous suspension of compound A; format: physicochemical
[4] = Solubility of compound A in water at various pH values (5℃, 24 h, HPLC); format: physicochemical

Sequence of poly(ADP-ribose) polymerase (PARP) [ポリ(ADP−リボース)ポリメラーゼ] (P09874 whole entry): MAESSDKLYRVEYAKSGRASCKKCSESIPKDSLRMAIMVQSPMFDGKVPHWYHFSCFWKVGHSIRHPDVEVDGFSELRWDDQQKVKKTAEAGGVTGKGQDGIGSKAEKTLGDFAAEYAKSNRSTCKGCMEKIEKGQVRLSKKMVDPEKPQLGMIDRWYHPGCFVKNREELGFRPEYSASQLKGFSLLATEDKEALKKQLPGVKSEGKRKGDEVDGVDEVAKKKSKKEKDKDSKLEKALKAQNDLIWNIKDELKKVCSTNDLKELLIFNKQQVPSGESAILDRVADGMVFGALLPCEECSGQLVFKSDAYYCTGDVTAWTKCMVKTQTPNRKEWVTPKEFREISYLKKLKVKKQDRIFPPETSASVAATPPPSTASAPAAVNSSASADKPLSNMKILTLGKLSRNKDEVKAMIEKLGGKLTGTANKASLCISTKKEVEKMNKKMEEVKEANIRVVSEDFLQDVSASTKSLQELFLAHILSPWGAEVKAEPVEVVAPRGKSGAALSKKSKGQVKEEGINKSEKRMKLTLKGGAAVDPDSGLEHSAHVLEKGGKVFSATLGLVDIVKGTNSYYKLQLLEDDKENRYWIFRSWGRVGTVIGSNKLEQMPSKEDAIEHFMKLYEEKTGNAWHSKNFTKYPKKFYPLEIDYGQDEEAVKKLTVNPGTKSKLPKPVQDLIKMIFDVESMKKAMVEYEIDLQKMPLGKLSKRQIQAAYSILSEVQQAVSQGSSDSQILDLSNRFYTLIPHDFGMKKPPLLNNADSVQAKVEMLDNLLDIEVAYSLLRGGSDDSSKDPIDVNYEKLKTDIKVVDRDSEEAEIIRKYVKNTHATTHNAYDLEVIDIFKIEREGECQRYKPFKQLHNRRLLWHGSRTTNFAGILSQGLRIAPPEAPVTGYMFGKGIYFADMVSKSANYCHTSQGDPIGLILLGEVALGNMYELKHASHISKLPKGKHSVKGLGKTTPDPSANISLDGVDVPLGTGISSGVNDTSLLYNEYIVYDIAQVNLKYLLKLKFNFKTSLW

In the case of `O=C(Cc1n[nH]c(=O)c2c1CCCC2)NCCCCN1CCOCC1` [化合物A, 4−(N−(4−(モルホリン−4−イル)ブチル)カルバモイルメチル)−5,6,7,8−テトラヒドロフタラジン−1(2H)−オン], the PARP inhibitory activity [1] is given as “阻害活性を有する; also recorded: PARP阻害活性を有する”, the toxicity [2] is given as “非常に低い” and the “pH of supernatant of aqueous suspension” value [3] is given as ~9.4. For the same compound, the dissolution in water ([4]; near neutral (e.g. pH 6 or above)) was “速やかに水に溶解せず”, the solubility in water ([4]; pH 8 or above) was “低い” and the dissolution in water ([4]; pH about 5 or below) was “速やかに水に溶解する”. The solubility in water ([4]; pH about 7 or below (adjusted)) was “著しく上昇; also recorded: 著しく向上” and the solubility in water ([4]; water) was “極めて低く”.
